One series deals with C57B1/6J mice. The experiment in a line: Vasopressin infusion during pregnancy, preeclampsia-like phenotypes. The series is classed as in vivo. As for the experimental part: Animal Studies: Female C57B1/6J mice were obtained from Jackson Laboratories between 8-12 weeks of age. Osmotic minipumps infusing vasopressin (240 ng/hr) or saline vehicle were inserted into the subcutaneous space via incision between the scapulae. Following three days of recovery, females were mated with male C57B1/6J mice. Presence of a vaginal plug indicated gestational day 0.5. Blood pressure was tracked before mating and throughout gestation by tail-cuff plethysmography. On gestational day 18, females were sacrificed for necropsy. Pup weight was recorded. Dam kidney sections were generated and imaged by electron microscopy by the University of Iowa Department of Pathology. All studies were approved by the University of Iowa Animal Care and Use Committee (ACURF#1211239).

For series [1], the system named is 2°-branch mesenteric artery. The experiment in a line: tissue or blood. Further details: species or system mice. To be noted: mesenteric artery; for EC50: read-out: EC50, contractile response. As for the experimental part:
Mesenteric Artery Vascular Reactivity: Secondary branches of mesenteric artery were dissected and placed in chilled oxygenated (21% O2, 5% CO2, and 74% N2) Kreb's buffer. A segment (˜1 mm long) of artery was transferred to a vessel chamber (DMT), cannulated with glass micropipettes and secured with silk ligatures. The artery was slowly pressurized to 40 mmHg without flow. After 30 min equilibration, vessel viability was tested by constriction response to 100 mM KCl. Vascular responses to PE (10-9-10-5 mol/L), AVP (10-12-10-7 mol/L), and ET-1 (10-11-10-8 mol/L) were then assessed. The artery was then superfused with calcium-free Krebs buffer containing 10-5 mol/L sodium nitroprusside and 2 mmol/L EGTA to maximally dilate the vessel. Internal and external diameters were measured at 75 mm Hg. Wall thickness, media/lumen ratio and cross sectional area (CSA) were calculated as previously described by Neves, et al. (58).
Statistics: Data were analyzed by ANOVA with repeated measures as appropriate. Post-hoc analyses were performed using Bonferroni multiple-comparisons procedures. EC50 and maximum response calculations were performed by fitting individual dose-response data sets to a four-parameter logistic function (Hillslope method); y=min+(max−min)/(1+(x/EC50)̂Hill slope). All mRNA fold changes were calculated using the Livak method (51). All analytical comparisons were performed using SigmaStat/SigmaPlot (Systat). All data are presented as mean±sem.

Another series concerns abdominal aorta. To be noted: abdominal aorta; for EC50: read-out: EC50, contractile response.
The conditions of series [2]: in blood; cited from earlier work.

This is an account of results in patent US20150377876A1, “DIAGNOSTIC TOOLS TO PREDICT ONSET OF PREECLAMPSIA” (UNIVERSITY OF IOWA RESEARCH FOUNDATION, priority 2013, published 2015).

Broadly, the EC50 is the concentration giving half of the maximal effect.

Where two headings read alike, the source gives them in different places.

Method for abdominal aorta: Aortic Vascular Reactivity: Abdominal aortic rings were assessed for vascular reactivity as previously described (30). Briefly, mice were euthanized by overdose of pentobarbital (50 mg, i.p.), and the abdominal aorta was quickly removed and placed in Kreb's buffer containing (in mmol/L): 118.3 NaCl, 4.7 KCl, 1.2 MgSO4, 1.2 KH2PO4, 25 NaHCO3, 2.5 CaCl2 and 11 glucose. Vascular rings (4-5 mm in length) were suspended in oxygenated Kreb's buffer (95% O2/5% CO2) in organ baths at 37° C. and connected to a force transducer via steel hooks. Resting tension was adjusted to 0.5 grams over 45 minutes.
Statistics: Data were analyzed by ANOVA with repeated measures as appropriate. Post-hoc analyses were performed using Bonferroni multiple-comparisons procedures. EC50 and maximum response calculations were performed by fitting individual dose-response data sets to a four-parameter logistic function (Hillslope method); y=min+(max−min)/(1+(x/EC50)̂Hill slope). […] All analytical comparisons were performed using SigmaStat/SigmaPlot (Systat). All data are presented as mean±sem.

Regarding `NC(=O)CC[C@@H]1NC(=O)[C@H](Cc2ccccc2)NC(=O)[C@H](Cc2ccc(O)cc2)NC(=O)[C@@H](N)CSSC[C@@H](C(=O)N2CCC[C@H]2C(=O)N[C@@H](CCCN=C(N)N)C(=O)NCC(N)=O)NC(=O)[C@H](CC(N)=O)NC1=O` [Arginine vasopressin, arginine vasopressin], the “renal pathology (electron microscopy)” value with C57B1/6J mice (dam kidney, gestational day 18, 240 ng/hr sc minipump) is “pathognomic glomerular endotheliosis”. For the same compound, the “rate of pregnancy (fecundity)” value with C57B1/6J mice (female C57B1/6J mice, 240 ng/hr sc minipump) is listed as “significantly reduced the rate of pregnancy”. Besides, the fetal growth entry in the series with C57B1/6J mice (gestational day 18 fetuses, 240 ng/hr sc minipump) is given as “substantial fetal growth restriction”. In the series with C57B1/6J mice (pregnant C57B1/6J mice, 240 ng/hr sc minipump), the proteinuria result is given as “apparent proteinuria”. Also, the “blood pressure during pregnancy” value in the series with C57B1/6J mice (pregnant C57B1/6J mice, 240 ng/hr sc minipump, tail-cuff) is “robust increase in blood pressure”. The Maximum Response, contraction in series [1] (male control littermate mice) turned out to be 52.5 ± 3.2%; with abdominal aorta (male control littermate mice) it was 0.29 ± 0.03 g; with abdominal aorta (male sRA mice), 0.12 ± 0.01 g. The EC50 in series [1] (male control littermate mice) stood at 0.57 ± 0.15 nM; in series [1] (male sRA mice) it was 15.9 ± 13.5 nM; in the series with abdominal aorta (male control littermate mice) it was 2.19 ± 0.19 nM; in the series on abdominal aorta (male sRA mice), 3.72 ± 0.73 nM. The biological half-life in series [2] is reported as 5-20 minutes.
